From US9057727B2, “Screening methods using G-protein coupled receptors and related compositions” (The General Hospital Corporation, priority 2007, dated 2015)
Entries after “also recorded” stand apart in the source; their conditions may differ. Each block holds one molecule with its values, some of them ahead of it.

How the values were obtained:
[1] = molecular target: T1, human PTHR, G protein-uncoupled conformation (R^0) (Homo sapiens, UniProt Q03431); test: Competition binding to R0 conformation of hPTHR (COS-7 membranes, GTPγS, 125I-PTH(1-34) tracer); conditions: Table 5; fold weaker affinity for R0 than RG
T1 construct: expressed in transfected cells; host or cells: COS-7, transient (Fugene-6)
T1 sequence (Q03431 27-593): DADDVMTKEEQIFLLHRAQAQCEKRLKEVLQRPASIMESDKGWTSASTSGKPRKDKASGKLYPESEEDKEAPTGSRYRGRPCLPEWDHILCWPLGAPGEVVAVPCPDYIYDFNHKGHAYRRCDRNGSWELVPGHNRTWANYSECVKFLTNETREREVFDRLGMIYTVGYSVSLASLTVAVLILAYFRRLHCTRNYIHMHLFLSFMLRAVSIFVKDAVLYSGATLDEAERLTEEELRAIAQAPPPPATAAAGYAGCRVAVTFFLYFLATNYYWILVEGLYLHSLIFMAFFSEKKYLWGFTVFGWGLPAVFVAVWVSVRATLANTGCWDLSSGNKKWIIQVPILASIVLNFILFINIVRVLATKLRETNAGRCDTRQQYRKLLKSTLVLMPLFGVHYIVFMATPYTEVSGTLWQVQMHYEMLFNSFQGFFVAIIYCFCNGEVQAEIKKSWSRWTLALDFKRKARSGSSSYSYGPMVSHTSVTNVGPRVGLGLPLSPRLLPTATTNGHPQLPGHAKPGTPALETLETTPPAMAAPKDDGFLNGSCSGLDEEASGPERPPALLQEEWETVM
In short: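 Bound versus free radioligand was separated by vacuum filtration after 90 min incubation of COS-7 hPTHR membranes (20-100 μg/mL) with tracer and competing peptides. Non-specific binding came from a saturating unlabeled analog.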

[2] = system: opossum kidney (OK) cell line; test: Phosphate uptake inhibition in opossum kidney cells; assay type: cell-based; conditions: 10 minute exposure, 1×10^−7 M
[3] = Bone turnover markers (PINP, osteocalcin, CTX) in mice, daily treatment; assay type: in vivo; conditions: 5 nmol/kg i.v. daily, days 6 and 13
Procedure: FIGS. 30A-30F are graphs showing the effects of PTH analogs on plasma bone markers in mice. Mice (C57BL/6, males, 3 months) were intravenously injected daily with either vehicle, rPTH(1-34) (SEQ ID NO:130), M-PTH(1-34) (SEQ ID NO:12), or (EALK)-PTHrP(1-30) (SEQ ID NO:90) (5 nmol/kg; n=7 group) for 14 days. Markers of bone turnover (PINP, CTX and osteocalcin) were assessed by ELISA in blood at day 6 (FIGS. 30A, 30C, and 30E, respectively) and 13 (FIGS. 30B, 30D, and 30F, respectively).
A second set of experiments was performed in which mice received 5 nmol/kg intravenous daily treatment with rPTH(1-34), M-PTH(1-34), or EALK-PTHrP(1-30) for 14 days. Blood samples were taken at days 6 and 13, and markers of bone turnover (PINP, osteocalcin and CTX) were assessed by ELISA.

[4] = Bone structural parameters after two-week daily treatment in mice (Piximus, microCT); assay type: in vivo
Procedure: FIG. 31 is a set of images showing the effects of two-week daily treatment of R^0 and RG ligands on trabecular and cortical bone structure in mice. Mice (C57BL/6, males, 3 months) were treated (i.v.) with either vehicle, rPTH(1-34) (SEQ ID NO:130), M-PTH(1-34) (SEQ ID NO:12), or E^18,A^22,L^25,K^26 (EALK)PTHrP(1-30) (SEQ ID NO:90) (5 nmol/kg; n=7 group), daily for 14 days, and femurs were analyzed by μCT.
As described above, mice were treated intravenously) with either vehicle, rPTH(1-34), M-PTH(1-34), or EALK-PTHrP(1-30) daily for 14 days.

[5] = Plasma phosphate in mice (20 nmol/kg); assay type: in vivo
Text: (§1) To impair PLC signaling, we replaced alanine at position 1 of M-PTH(1-28) with tryptophan, in accordance with findings of Bisello and colleagues (J Biol Chem 277:38524-30, 2002) showing that such bulky substitutions at this position selectively impair PLC signaling.

NaPi-IIa = NaPi-IIa staining in renal PT cells of injected mice; conditions: mouse, in vivo
Text: To help elucidate further the signaling mechanisms by which PTH ligands regulate renal phosphate transport, we developed a derivative of M-PTH(1-28) that is defective for PLC/PKC signaling, yet retains potent cAMP/PKA signaling activity. Such a peptide allows for study of the relative roles of the PKA and PKC signaling pathways in modulating the function and surface expression of the Pi transporters NaPi-IIa and NaPi-IIc in proximal tubule (PT) cells. The analog M-PTH(1-28) (M=Ala^1,Aib^3,Gln^10, Har^11,Trp^14,Arg^19), a potent agonist for cAMP and IP3 signaling pathways, induces, when injected into mice, prolonged hypophosphatemic and hypercalcemic effects.
as §1

NaPi-IIc = NaPi-IIc immunostaining in renal PT cells of injected mice; assay type: in vivo; conditions: interval 4 to 6 h
Text: as §1

[6] = Serum and urinary calcium and phosphate in TPTX rats; assay type: in vivo; conditions: single i.v. 1.25 nmol/kg
Procedure: Five-week-old male Crl:CD(SD) rats were obtained from Charles River Laboratories Japan, Inc. (Kanagawa, Japan) and acclimated for 1 week under standard laboratory conditions at 20-26° C. and 35-75% humidity. The rats received free access to tap water and standard rodent chow (CE-2) containing 1.1% calcium, 1.0% phosphate and 250 IU/100 g of vitamin D3 (Clea Japan, Inc., Shizuoka, Japan).
Thyroparathyroidectomy (TPTX) was performed on six-week-old rats. TPTX rats were selected for use based on serum ionized calcium (iCa) levels (<1.0 mM) in samples taken from tail vein bleeding at 24 hours or […] after the operation using the electrode method. The TPTX rats were divided into six groups of five animals based on iCa levels at 48 hours after the operation. TPTX-vehicle group intravenously received the vehicle alone (10 mM acetic acid solution) at a dose of 1 ml/kg body weight administered to the tail vein.
Blood was obtained from the tail vein for detecting iCa at 1, 2, 4, 6, and 24 hours after each injection. Ionized calcium levels were determined by the electrode method using an autoanalyzer (M-634, Chiba Corning Diagnostics Co. Ltd., Tokyo, Japan).
We also studied the effects of the M-PTH(1-14)/PTHrP(15-36) hybrid peptide (SP-PTH) on serum and urinary calcium and phosphate.

hPTHR [7] = molecular target: T2, hPTHR (Homo sapiens, UniProt Q03431); test: Delayed cAMP response after ligand wash-out in HKRK-B7 cells; assay type: cell-based; design: expressed in transfected cells
T2 sequence (Q03431 27-593): T1 sequence (Q03431 27-593)

hPTHR [8] = molecular target: T2, hPTHR; test: Delayed cAMP response after ligand wash-out in HKRK-B64 cells; assay type: cell-based; design: expressed in transfected cells; conditions: HKRK-B64, 60 minutes after wash-out; read-out: cAMP response after wash-out, % of maximum response
hPTHR [9] = molecular target: T2, hPTHR; test: Radioligand dissociation from PTHR in HKRK-B7 membranes with or without GTPγS; assay type: binding; design: expressed in transfected cells
rat PTHR = molecular target: T3, rat PTHR (Rattus norvegicus, UniProt P25961); test: GTPγS inhibition of equilibrium radioligand binding, ROS17/2.8 membranes; design: the rat osteoblastic cell line ROS17/2.8, which endogenously expresses the rat PTHR; endogenous in cells; host or cells: ROS 17/2.8 rat osteosarcoma cells (membranes or intact cells)
T3 sequence (P25961 27-591): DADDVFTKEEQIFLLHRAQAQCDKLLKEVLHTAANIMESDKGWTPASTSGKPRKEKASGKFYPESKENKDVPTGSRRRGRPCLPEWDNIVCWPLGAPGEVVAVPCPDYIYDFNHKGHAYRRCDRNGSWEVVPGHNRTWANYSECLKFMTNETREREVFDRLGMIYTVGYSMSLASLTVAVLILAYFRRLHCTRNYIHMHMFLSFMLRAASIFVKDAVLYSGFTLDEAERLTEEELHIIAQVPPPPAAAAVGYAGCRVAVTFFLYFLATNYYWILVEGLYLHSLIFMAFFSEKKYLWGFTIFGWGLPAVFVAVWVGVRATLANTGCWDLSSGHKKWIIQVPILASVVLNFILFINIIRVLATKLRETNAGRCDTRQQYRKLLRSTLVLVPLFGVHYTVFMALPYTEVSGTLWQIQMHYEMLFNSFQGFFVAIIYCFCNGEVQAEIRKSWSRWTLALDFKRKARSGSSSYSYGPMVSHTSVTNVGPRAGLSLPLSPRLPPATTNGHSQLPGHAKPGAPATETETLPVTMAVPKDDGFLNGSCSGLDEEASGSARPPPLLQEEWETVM
Procedure: FIGS. 2A and 2B are graphs showing GTPγS sensitivity of PTH and PTHrP analog binding to the human and rat PTHRs. Radioligand analog binding to the PTHR in membranes prepared from HKRK-B7 (FIG. 2A) or ROS 17/2.8 cells (FIG. 2B) was assessed under near-equilibrium conditions in the absence or presence of varying concentrations of GTPγS. Data are expressed as a percent of radioactivity specifically bound (SB) in the absence of GTPγS. […] The radioligands studied were ^125I-[Nle^8,21,Tyr^34]PTH(1-34)NH2 (SEQ ID NO:123); [Tyr^36]PTHrP(1-36)NH2 (SEQ ID NO:124); [Ile^5,Tyr^36]PTHrP(1-36)NH2 (SEQ ID NO:125) and [Aib^1,3,Nle^8,Gln^10,Har^11,Ala^12,Trp^14,Tyr^15]hPTH(1-15)NH2 (SEQ ID NO:126).
The effects of GTPγS on the binding of these radioligands to the PTHR under approximate-equilibrium conditions was assessed. by incubating with cell membranes for 90 minutes in the absence or presence of GTPγS at varying concentrations. […]
Binding reactions performed with ^125I-[Aib^1,3,M]PTH(1-15) radioligand were assembled and incubated in the wells of the 96-well, Multi-Screen vacuum filtration plates. […] For both radioligands, the non-specific binding was determined in reactions containing a saturating concentration of the unlabeled analog of the radioligand. The specifically bound radioactivity was calculated as a percent of the radioactivity specifically bound in the absence of a competing ligand or GTPγS.

[10] = Piximus, mice, 5 nmol/kg i.v. daily 14 days

- R0:RG [1]: five
- Emax (hPTHR [8]): 47%
Molecule: CC[C@H](C)[C@H](NC(=O)[C@H](CCC(=O)O)NC(=O)[C@H](CO)NC(=O)[C@@H](NC(=O)[C@H](C)N)C(C)C)C(=O)N[C@@H](CCC(N)=O)C(=O)N[C@@H](CC(C)C)C(=O)N[C@@H](CCSC)C(=O)N[C@@H](Cc1c[nH]cn1)C(=O)N[C@@H](CC(N)=O)C(=O)N[C@@H](CC(C)C)C(=O)NCC(=O)N[C@@H](CCCCN)C(=O)N[C@@H](Cc1c[nH]cn1)C(=O)N[C@@H](CC(C)C)C(=O)N[C@@H](C)C(=O)N[C@@H](CO)C(=O)N[C@H](C(=O)N[C@@H](CCC(=O)O)C(=O)N[C@@H](CCCNC(=N)N)C(=O)N[C@@H](CCSC)C(=O)N[C@@H](CCC(N)=O)C(=O)N[C@@H](Cc1c[nH]c2ccccc12)C(=O)N[C@@H](CC(C)C)C(=O)N[C@@H](CCCNC(=N)N)C(=O)N[C@@H](CCCCN)C(=O)N[C@@H](CCCCN)C(=O)N[C@@H](CC(C)C)C(=O)N[C@@H](CCC(N)=O)C(=O)N[C@@H](CC(=O)O)C(=O)N[C@H](C(=O)N[C@@H](Cc1c[nH]cn1)C(=O)N[C@@H](CC(N)=O)C(=O)N[C@@H](Cc1ccccc1)C(N)=O)C(C)C)C(C)C [PTH(1-34), reference compound]
- duration of phosphate uptake inhibition, in words [2]: much shorter duration of phosphate uptake inhibition
- effect on bone turnover markers, in words [3]: only minor effects on bone markers
- Lumbar Spine BMD [4, 10]: 0.0464 ± 0.0002 g/cm^2
- Total Femur BMD [4, 10]: 0.0615 ± 0.0003 g/cm^2
- Conn-Dens. ([4]; microCT distal femur): 116 ± 8 1/mm^3
- Cort Th. ([4]; microCT distal femur): 229 ± 11 μm
- Tb · N ([4]; microCT distal femur): 4.02 ± 0.14 1/mm
- Tb · Th ([4]; microCT distal femur): 57.5 ± 1.4 μm
- TbSp ([4]; microCT distal femur): 246 ± 10 μm
- TrabecularBV/TV ([4]; microCT distal femur): 17.4 ± 1.2%
- BA ([4]; microCT mid femur): 0.839 ± 0.032 mm^2
- BA/TA ([4]; microCT mid femur): 38.7 ± 0.7%
- Cort Th. ([4]; microCT mid femur): 172 ± 5 μm
- MA ([4]; microCT mid femur): 1.33 ± 0.02 mm^2
- TA ([4]; microCT mid femur): 2.17 ± 0.05 mm^2
- time of maximal suppression of plasma phosphate [5]: 2 h
- time of recovery of plasma phosphate to vehicle control levels [5]: 4 h
- apical and cytoplasmic NaPi-IIa staining, in words (NaPi-IIa): returned to vehicle control levels at 6 h
- NaPi-IIc immunostaining, in words (NaPi-IIc): unchanged
- serum calcium (sCa) and serum phosphorus (sPi), in words [6]: transiently increased serum calcium (sCa) and decreased serum phosphorus (sPi) levels at 1 hr, but not to the normal range
- urinary calcium 0-6 hours, in words [6]: did not change
- urinary phosphate 0-6 hours, in words [6]: did not change
- time course of cAMP responses after wash-out compared with other ligands, in words (hPTHR [7]): not different from those induced by PTHrP(1-36); also recorded: nearly identical to those produced by Ile^5-PTHrP(1-36)

- fraction of complexes stable, decaying slowly (hPTHR [9]; absence of GTPγS): 68%
- fraction of complexes unstable, decaying rapidly (hPTHR [9]; with GTPγS): 72%
- sensitivity of binding to GTPγS, in words (rat PTHR): strongly inhibited
Molecule: ^125I[Tyr^36]PTHrP(1-36)NH2 [^125I-PTHrP(1-36)]
